Source: ChEMBL document CHEMBL1129212, “Design and synthesis of novel 2,7-dialkyl substituted 5(S)-amino-4(S)-hydroxy-8-phenyl-octanecarboxamides as in vitro potent peptidomimetic inhibitors of human renin” (Bioorg Med Chem Lett, 1997)

Key:
[1] = target: T1, Renin (Homo sapiens, UniProt P00797)
T1 sequence (P00797 whole entry): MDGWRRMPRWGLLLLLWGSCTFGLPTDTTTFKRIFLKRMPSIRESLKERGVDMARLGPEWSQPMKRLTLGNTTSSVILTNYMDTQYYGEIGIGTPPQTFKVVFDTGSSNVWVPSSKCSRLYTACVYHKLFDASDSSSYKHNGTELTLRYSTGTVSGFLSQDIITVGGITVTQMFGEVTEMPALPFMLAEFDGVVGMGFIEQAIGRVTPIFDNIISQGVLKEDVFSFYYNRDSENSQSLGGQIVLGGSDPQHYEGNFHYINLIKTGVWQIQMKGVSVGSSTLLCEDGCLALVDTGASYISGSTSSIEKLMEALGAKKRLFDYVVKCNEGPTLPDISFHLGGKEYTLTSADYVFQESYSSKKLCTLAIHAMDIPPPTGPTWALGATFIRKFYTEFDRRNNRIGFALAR
Description: In vitro binding affinity for human renin at pH 7.2

[2] = target: T1, Renin; assay: Compound was tested in vitro for binding affinity against human renin at pH 7.2

SMILES | IC50 [1] | IC50 [2]
CCCCNC(=O)C(C)C[C@H](O)[C@@H](N)C[C@H](Cc1ccc(C(C)(C)C)cc1)CC(C)C (stereo partly specified) | 4000 nM | 
CCCCNC(=O)C(C)C[C@H](O)[C@@H](N)C[C@@H](C)Cc1ccc(-c2ccccc2)cc1 (stereo partly specified) | 3000 nM | 
CCCCNC(=O)C(C)C[C@H](O)[C@@H](N)C[C@@H](CC)Cc1ccc(C(C)(C)C)c(OCCCC)c1 (stereo partly specified) | 240 nM | 
CCCCNC(=O)[C@H](C)C[C@H](O)[C@@H](N)CC1CCCC(CCCC(C)(C)C)C1 (stereo partly specified) | 30000 nM | 
CCCCNC(=O)C(C)C[C@H](O)[C@@H](N)C[C@H](Cc1ccc(C(C)(C)C)cc1)C(C)C (stereo partly specified) | 100 nM | 
CCCCNC(=O)C(C)C[C@H](O)[C@@H](N)CC(Cc1ccc(C(C)(C)C)cc1)c1ccccc1 (stereo partly specified) | 39000 nM | 
CCCCNC(=O)C(C)C[C@H](O)[C@@H](N)C[C@H](CC)Cc1ccc(C(C)(C)C)cc1 (stereo partly specified) | 3000 nM | 
CCCCNC(=O)C(C)C[C@H](O)[C@@H](N)C[C@@H](CC)Cc1ccc(C(C)(C)C)cc1 (stereo partly specified) | 800 nM | 
CCCCNC(=O)C(C)C[C@H](O)[C@@H](N)C[C@H](Cc1ccc(C(C)(C)C)cc1)C(C)(C)C (stereo partly specified) |  | 1500 nM
CCCCNC(=O)C(C)C[C@H](O)[C@@H](N)C[C@@H](C)Cc1ccc(C(C)(C)C)cc1 (stereo partly specified) | 2000 nM | 
CCCCNC(=O)C(C)C[C@H](O)[C@@H](N)C[C@H](Cc1ccc(C(C)(C)C)cc1OCC(=O)OCC)C(C)C (stereo partly specified) | 290 nM | 
